Organism: Rattus norvegicus
Assay: Open TG-GATES - Regimen: Single
Type: toxicity, organism-based, Sprague-Dawley
Set-up: regimen Single, gender Male, age 6 weeks
Conditions: in vivo, po, 0 mg/kg, route gavage, dose level Control; for APTT / Bas / Eos / Fbg / Ht / Lym / MCHC / MCV / Mono / PT / Plat / RBC / Ret / WBC / Hb: tissue Blood; for KIDNEY_L / KIDNEY_R / KIDNEY_TOTAL: tissue Kidney; for LIVER: tissue Liver; for ALP / ALT / AST / BUN / CRE / DBIL / GLC / IP / K / LDH / RALB / TBIL / TC / TP / gamma-GTP / PL: tissue Plasma

**Q.** What does the source list for CN(C)CCCN1c2ccccc2CCc2ccccc21 [IMIPRAMINE]?
**A.** TERMINAL_BW (3 h): 203.9 g; APTT (3 h): 16.9 s; Bas (3 h): 0.2%; Eos (3 h): 1%; Fbg (3 h): 270.6 mg/dL; Ht (3 h): 40.9%; Lym (3 h): 79.2%; MCHC (3 h): 32.3%; MCV (3 h): 64.7 fL; Mono (3 h): 2.8%; PT (3 h): 15.9 s; Plat (3 h): 112.7 x10_4/uL; RBC (3 h): 632.8 x10_4/ul; Ret (3 h): 8.2%; WBC (3 h): 81.7 x10_2/uL; KIDNEY_L (3 h): 0.9 g; KIDNEY_R (3 h): 0.9 g; KIDNEY_TOTAL (3 h): 1.7 g; LIVER (3 h): 9.1 g; ALP (3 h): 1571.6 IU/L; ALT (3 h): 52 IU/L; AST (3 h): 84.6 IU/L; BUN (3 h): 9 mg/dL; CRE (3 h): 0.2 mg/dL; DBIL (3 h): 0.01 mg/dL; GLC (3 h): 183.2 mg/dL; IP (3 h): 8.9 mg/dL; K (3 h): 4 meq/L; LDH (3 h): 111 IU/L; RALB (3 h): 2.6 g/dL; TBIL (3 h): 0.07 mg/dL; TC (3 h): 84 mg/dL; TP (3 h): 5.4 g/dL; gamma-GTP (3 h): 1.6 IU/L; TERMINAL_BW (6 h): 201.5 g; APTT (6 h): 15.5 s; Bas (6 h): 0.4%; Eos (6 h): 0.8%; Fbg (6 h): 326 mg/dL; Hb (6 h): 12.8 g/dL; Ht (6 h): 39.2%; Lym (6 h): 73.2%; MCHC (6 h): 32.5%; MCV (6 h): 63.9 fL; Mono (6 h): 3%; PT (6 h): 15.8 s; Plat (6 h): 112.2 x10_4/uL; RBC (6 h): 614.8 x10_4/ul; Ret (6 h): 7.6%; WBC (6 h): 95 x10_2/uL; KIDNEY_L (6 h): 0.9 g; KIDNEY_R (6 h): 0.9 g; KIDNEY_TOTAL (6 h): 1.9 g; LIVER (6 h): 9.1 g; ALP (6 h): 1465 IU/L; ALT (6 h): 52.8 IU/L; AST (6 h): 99.2 IU/L; BUN (6 h): 8.4 mg/dL; CRE (6 h): 0.2 mg/dL; GLC (6 h): 176.2 mg/dL; IP (6 h): 9.4 mg/dL; K (6 h): 4 meq/L; LDH (6 h): 80.4 IU/L; PL (6 h): 133.6 mg/dL; RALB (6 h): 2.5 g/dL; TBIL (6 h): 0.07 mg/dL; TC (6 h): 72.6 mg/dL; TP (6 h): 5.3 g/dL; gamma-GTP (6 h): 1.2 IU/L; TERMINAL_BW (9 h): 200.5 g; APTT (9 h): 16 s; Bas (9 h): 0.4%; Eos (9 h): 1%; Fbg (9 h): 291.6 mg/dL; Hb (9 h): 12.9 g/dL; Ht (9 h): 40.1%; Lym (9 h): 80.8%; MCHC (9 h): 32.3%; MCV (9 h): 65.1 fL; Mono (9 h): 2.4%; PT (9 h): 15.3 s; Plat (9 h): 110.6 x10_4/uL; RBC (9 h): 615.4 x10_4/ul; Ret (9 h): 8.2%; WBC (9 h): 76.7 x10_2/uL; KIDNEY_L (9 h): 0.9 g; KIDNEY_R (9 h): 0.9 g; KIDNEY_TOTAL (9 h): 1.8 g; LIVER (9 h): 8.2 g; ALP (9 h): 1396.6 IU/L; ALT (9 h): 37.4 IU/L; AST (9 h): 69.6 IU/L; BUN (9 h): 8 mg/dL; CRE (9 h): 0.1 mg/dL; DBIL (9 h): 0.008 mg/dL; GLC (9 h): 178 mg/dL; IP (9 h): 9.9 mg/dL; K (9 h): 4.1 meq/L; LDH (9 h): 59 IU/L; PL (9 h): 136 mg/dL; RALB (9 h): 2.5 g/dL; TBIL (9 h): 0.068 mg/dL; TC (9 h): 74.4 mg/dL; TP (9 h): 5.2 g/dL; gamma-GTP (9 h): 1 IU/L; TERMINAL_BW (24 h): 217.3 g; APTT (24 h): 17.1 s; Bas (24 h): 0.2%; Eos (24 h): 1.2%; Fbg (24 h): 265.2 mg/dL; Ht (24 h): 41.7%; Lym (24 h): 76.2%; MCHC (24 h): 32.1%; MCV (24 h): 66.7 fL; Mono (24 h): 2.8%; PT (24 h): 16.1 s; Plat (24 h): 114.2 x10_4/uL; RBC (24 h): 626.2 x10_4/ul; Ret (24 h): 7.8%; WBC (24 h): 93.4 x10_2/uL; KIDNEY_L (24 h): 0.9 g; KIDNEY_R (24 h): 0.9 g; KIDNEY_TOTAL (24 h): 1.8 g; LIVER (24 h): 10.2 g; ALP (24 h): 1689.2 IU/L; ALT (24 h): 59 IU/L; AST (24 h): 83.4 IU/L; CRE (24 h): 0.2 mg/dL; DBIL (24 h): 0.02 mg/dL; GLC (24 h): 185.4 mg/dL; IP (24 h): 8.1 mg/dL; K (24 h): 3.9 meq/L; LDH (24 h): 75.2 IU/L; RALB (24 h): 2.6 g/dL; TBIL (24 h): 0.06 mg/dL

From ChEMBL document CHEMBL3885861, “Open TG-GATES”
